Results published in PubChem BioAssay (NCI).
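Results reflect a 48-hour exposure of cells in 96-well plates to compound at five concentrations. The concentration for 50% growth inhibition is given as GI50. TGI: total growth inhibition.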

Experiments:
Test in all cases: growth of human tumour cells (NCI), 48 h
786-0 renal = test system: 786-0 renal
A498 renal = test system: A498 renal
A549 NSCLC = test system: A549 NSCLC
BT-549 breast = test system: BT-549 breast
CAKI-1 renal = test system: CAKI-1 renal
CCRF-CEM leukemia = test system: CCRF-CEM leukemia
COLO 205 colon = test system: COLO 205 colon
DU-145 prostate = test system: DU-145 prostate
EKVX NSCLC = test system: EKVX NSCLC
HCC-2998 colon = test system: HCC-2998 colon
HCT-116 colon = test system: HCT-116 colon
HCT-15 colon = test system: HCT-15 colon
HL-60(TB) leukemia = test system: HL-60(TB) leukemia
HOP-62 NSCLC = test system: HOP-62 NSCLC
HS 578T breast = test system: HS 578T breast
HT29 colon = test system: HT29 colon
IGROV1 ovarian = test system: IGROV1 ovarian
K-562 leukemia = test system: K-562 leukemia
KM12 colon = test system: KM12 colon
LOX IMVI melanoma = test system: LOX IMVI melanoma
M14 melanoma = test system: M14 melanoma
MALME-3M melanoma = test system: MALME-3M melanoma
MCF7 breast = test system: MCF7 breast
MDA-MB-231 breast = test system: MDA-MB-231 breast
MDA-MB-435 = test system: MDA-MB-435
MDA-MB-468 breast = test system: MDA-MB-468 breast
MOLT-4 leukemia = test system: MOLT-4 leukemia
NCI-H23 lung = test system: NCI-H23 lung
NCI-H460 lung = test system: NCI-H460 lung
NCI-H522 lung = test system: NCI-H522 lung
OVCAR-3 ovarian = test system: OVCAR-3 ovarian
OVCAR-4 ovarian = test system: OVCAR-4 ovarian
OVCAR-5 ovarian = test system: OVCAR-5 ovarian
OVCAR-8 ovarian = test system: OVCAR-8 ovarian
PC-3 prostate = test system: PC-3 prostate
RPMI-8226 leukemia = test system: RPMI-8226 leukemia
RXF 393 renal = test system: RXF 393 renal
SF-268 CNS = test system: SF-268 CNS
SF-295 CNS = test system: SF-295 CNS
SF-539 CNS = test system: SF-539 CNS
SK-MEL-2 melanoma = test system: SK-MEL-2 melanoma
SK-MEL-28 melanoma = test system: SK-MEL-28 melanoma
SK-MEL-5 melanoma = test system: SK-MEL-5 melanoma
SK-OV-3 ovarian = test system: SK-OV-3 ovarian
SN12C renal = test system: SN12C renal
SNB-19 CNS = test system: SNB-19 CNS
SNB-75 CNS = test system: SNB-75 CNS
SR leukemia = test system: SR leukemia
SW-620 colon = test system: SW-620 colon
T-47D breast = test system: T-47D breast
TK-10 renal = test system: TK-10 renal
U251 CNS = test system: U251 CNS
UACC-257 melanoma = test system: UACC-257 melanoma
UO-31 renal = test system: UO-31 renal

COC[C@@H](CC(C)C)N=C1N/C(=C\c2ccc3ncsc3c2)C(=O)N1C
GI50 (786-0 renal): 3.48 µM
TGI (786-0 renal): > 100 µM
GI50 (A498 renal): 1.2 µM
TGI (A498 renal): 4.97 µM
GI50 (A549 NSCLC): 2.05 µM
TGI (A549 NSCLC): > 100 µM
GI50 (BT-549 breast): 2.01 µM
TGI (BT-549 breast): 9.51 µM
GI50 (CAKI-1 renal): 1.73 µM
TGI (CAKI-1 renal): > 100 µM
GI50 (CCRF-CEM leukemia): 2.55 µM
TGI (CCRF-CEM leukemia): 18.6 µM
GI50 (COLO 205 colon): 1.97 µM
TGI (COLO 205 colon): 7.26 µM
GI50 (DU-145 prostate): 3.22 µM
TGI (DU-145 prostate): > 100 µM
GI50 (EKVX NSCLC): 3.06 µM
TGI (EKVX NSCLC): > 100 µM
GI50 (HCC-2998 colon): 2.67 µM
TGI (HCC-2998 colon): 18.6 µM
GI50 (HCT-116 colon): 1.22 µM
TGI (HCT-116 colon): > 100 µM
GI50 (HCT-15 colon): 2.01 µM
TGI (HCT-15 colon): > 100 µM
GI50 (HL-60(TB) leukemia): 2.55 µM
TGI (HL-60(TB) leukemia): 8.29 µM
GI50 (HOP-62 NSCLC): 2.23 µM
TGI (HOP-62 NSCLC): 8.86 µM
GI50 (HS 578T breast): 2.03 µM
TGI (HS 578T breast): 9.14 µM
GI50 (HT29 colon): 3.27 µM
TGI (HT29 colon): 16.2 µM
GI50 (IGROV1 ovarian): 2.26 µM
TGI (IGROV1 ovarian): > 100 µM
GI50 (K-562 leukemia): 1.76 µM
TGI (K-562 leukemia): > 100 µM
GI50 (KM12 colon): 2.36 µM
TGI (KM12 colon): > 100 µM
GI50 (LOX IMVI melanoma): 2.34 µM
TGI (LOX IMVI melanoma): > 100 µM
GI50 (M14 melanoma): 4.11 µM
TGI (M14 melanoma): > 100 µM
GI50 (MALME-3M melanoma): 2.36 µM
TGI (MALME-3M melanoma): 8.53 µM
GI50 (MCF7 breast): 2.57 µM
TGI (MCF7 breast): 22.2 µM
GI50 (MDA-MB-231 breast): 3.9 µM
TGI (MDA-MB-231 breast): > 100 µM
GI50 (MDA-MB-435): 3.72 µM
TGI (MDA-MB-435): > 100 µM
GI50 (MDA-MB-468 breast): 0.999 µM
TGI (MDA-MB-468 breast): 6.09 µM
GI50 (MOLT-4 leukemia): 2.8 µM
TGI (MOLT-4 leukemia): > 100 µM
GI50 (NCI-H23 lung): 2.02 µM
TGI (NCI-H23 lung): 14.2 µM
GI50 (NCI-H460 lung): 2.61 µM
TGI (NCI-H460 lung): > 100 µM
GI50 (NCI-H522 lung): 1.34 µM
TGI (NCI-H522 lung): 6.03 µM
GI50 (OVCAR-3 ovarian): 1.23 µM
TGI (OVCAR-3 ovarian): 5.31 µM
GI50 (OVCAR-4 ovarian): 4.29 µM
TGI (OVCAR-4 ovarian): > 100 µM
GI50 (OVCAR-5 ovarian): 4.15 µM
TGI (OVCAR-5 ovarian): > 100 µM
GI50 (OVCAR-8 ovarian): 2.65 µM
TGI (OVCAR-8 ovarian): > 100 µM
GI50 (PC-3 prostate): 4.24 µM
TGI (PC-3 prostate): > 100 µM
GI50 (RPMI-8226 leukemia): 2.7 µM
TGI (RPMI-8226 leukemia): 12.3 µM
GI50 (RXF 393 renal): 2.18 µM
TGI (RXF 393 renal): 6.85 µM
GI50 (SF-268 CNS): 2.85 µM
TGI (SF-268 CNS): > 100 µM
GI50 (SF-295 CNS): 3.25 µM
TGI (SF-295 CNS): > 100 µM
GI50 (SF-539 CNS): 0.958 µM
TGI (SF-539 CNS): 7.12 µM
GI50 (SK-MEL-2 melanoma): 1.53 µM
TGI (SK-MEL-2 melanoma): 3.77 µM
GI50 (SK-MEL-28 melanoma): 2.93 µM
TGI (SK-MEL-28 melanoma): 8.72 µM
GI50 (SK-MEL-5 melanoma): 1.77 µM
TGI (SK-MEL-5 melanoma): 4.62 µM
GI50 (SK-OV-3 ovarian): 1.96 µM
TGI (SK-OV-3 ovarian): 9.82 µM
GI50 (SN12C renal): 3 µM
TGI (SN12C renal): > 100 µM
GI50 (SNB-19 CNS): 0.999 µM
TGI (SNB-19 CNS): > 100 µM
GI50 (SNB-75 CNS): 0.0476 µM
TGI (SNB-75 CNS): 4.84 µM
GI50 (SR leukemia): 2.17 µM
TGI (SR leukemia): 24.9 µM
GI50 (SW-620 colon): 1.54 µM
TGI (SW-620 colon): > 100 µM
GI50 (T-47D breast): 2.01 µM
TGI (T-47D breast): > 100 µM
GI50 (TK-10 renal): 3.8 µM
TGI (TK-10 renal): > 100 µM
GI50 (U251 CNS): 2.35 µM
TGI (U251 CNS): > 100 µM
GI50 (UACC-257 melanoma): 2.81 µM
TGI (UACC-257 melanoma): > 100 µM
GI50 (UO-31 renal): 1.87 µM
TGI (UO-31 renal): 7.21 µM
